Reference: patent publication US10800792B2, “Inhibitors of Bruton's tyrosine kinase and method of their use” (JANSSEN PHARMACEUTICA NV, priority 2015, dated 2020)

Target: unphosphorylated-BTK kinase domain (UP-BTK), GST-tagged human BTK (389-659aa) (Homo sapiens (Human), UniProt Q06187)
Test: BTK kinase Lanthascreen binding assay
Settings: unphosphorylated-BTK kinase domain, 50 nM Tracer 236, 60 minutes; pIC50 = negative log of the IC50 in molar
Method in brief: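 Lanthascreen competition binding; test compound vs fluorescent tracer on unphosphorylated BTK. Output: pIC50 (−log IC50, M).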

Chain of unphosphorylated-BTK kinase domain (UP-BTK), GST-tagged human BTK (389-659aa) (Q06187 389-659): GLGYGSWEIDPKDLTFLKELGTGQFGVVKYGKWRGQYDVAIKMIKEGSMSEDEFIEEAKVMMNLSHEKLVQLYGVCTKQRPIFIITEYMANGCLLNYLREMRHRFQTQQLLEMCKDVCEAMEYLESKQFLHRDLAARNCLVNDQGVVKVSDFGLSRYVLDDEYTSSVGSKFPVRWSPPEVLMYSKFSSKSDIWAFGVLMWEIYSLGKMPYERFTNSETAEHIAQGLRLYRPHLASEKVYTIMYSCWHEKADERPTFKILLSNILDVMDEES

Row | SMILES | BTK_I_binding pIC50
1 | C=CC(=O)N1CC[C@@H](NC(=O)c2sc3nccc4c3c2NC(=O)N4c2ccc(Oc3ccccc3)cc2C(F)(F)F)C1 [Example 324, (R)—N-(1-Acryloylpyrrolidin-3-yl)-4-oxo-5-(4-phenoxy-2-(trifluoromethyl)phenyl)-4,5-dihydro-3H-1-thia-3,5,8-triazaacenaphthylene-2-carboxamide] | 5.7
2 | Cc1cnc2sc(C(=O)N[C@@H]3CCCNC3)c3c2c1N(c1ccc(Oc2ccccc2)cc1)C(=O)N3 [Example 328, (R)-6-Methyl-4-oxo-5-(4-phenoxyphenyl)-N-(piperidin-3-yl)-4,5-dihydro-3H-1-thia-3,5,8-triazaacenaphthylene-2-carboxamide] | 5.7
3 | O=C(N[C@@H]1CCCNC1)c1sc2nccc3c2c1NC(=O)N3c1cc(Cl)cc(Cl)c1 [Example 330, (R)-5-(3,5-Dichlorophenyl)-4-oxo-N-(piperidin-3-yl)-4,5-dihydro-3H-1-thia-3,5,8-triazaacenaphthylene-2-carboxamide] | 5.6
4 | Cc1cc(Oc2ccccc2)ccc1N1C(=O)Nc2c(C(=O)N(C)[C@@H]3CCNC3)sc3nccc1c23 [Example 331, (R)—N-Methyl-5-(2-methyl-4-phenoxyphenyl)-4-oxo-N-(pyrrolidin-3-yl)-4,5-dihydro-3H-1-thia-3,5,8-triazaacenaphthylene-2-carboxamide] | 5.5
5 | C=CC(=O)N1CCC[C@@H](NC(=O)c2sc3nccc4c3c2NC(=O)N4c2ccc(C(C)(C)C)cc2)C1 [Example 334, (R)—N-(1-Acryloylpiperidin-3-yl)-5-(4-(tert-butyl)phenyl)-4-oxo-4,5-dihydro-3H-1-thia-3,5,8-triazaacenaphthylene-2-carboxamide] | 5.5
6 | O=C(N[C@@H]1CCCNC1)c1sc2nccc3c2c1NC(=O)N3c1cccc(Cl)c1 [Example 336, (R)-5-(3-Chlorophenyl)-4-oxo-N-(piperidin-3-yl)-4,5-dihydro-3H-1-thia-3,5,8-triazaacenaphthylene-2-carboxamide] | 5.4
7 | C=CC(=O)N1CC[C@@H](NC(=O)c2sc3nccc4c3c2NC(=O)N4c2ccccc2)C1 [Example 337, (R)—N-(1-Acryloylpyrrolidin-3-yl)-4-oxo-5-phenyl-4,5-dihydro-3H-1-thia-3,5,8-triazaacenaphthylene-2-carboxamide] | 5.4
8 | O=C(N[C@@H]1CCCNC1)c1sc2nccc3c2c1NC(=O)N3c1ccc(C(F)(F)F)cc1 [Example 341, (R)-4-Oxo-N-(piperidin-3-yl)-5-(4-(trifluoromethyl)phenyl)-4,5-dihydro-3H-1-thia-3,5,8-triazaacenaphthylene-2-carboxamide] | 5.2
9 | COc1ccc(N2C(=O)Nc3c(C(=O)N[C@@H]4CCCNC4)sc4nccc2c34)cc1 [Example 342, (R)-5-(4-Methoxyphenyl)-4-oxo-N-(piperidin-3-yl)-4,5-dihydro-3H-1-thia-3,5,8-triazaacenaphthylene-2-carboxamide] | 5.2
10 | O=C(N[C@@H]1CCCNC1)c1sc2nccc3c2c1NC(=O)N3c1ccc(-c2ccccc2)cc1 [Example 344, (R)-5-([1,1′-Biphenyl]-4-yl)-4-oxo-N-(piperidin-3-yl)-4,5-dihydro-3H-1-thia-3,5,8-triazaacenaphthylene-2-carboxamide] | 5.0
11 | O=C(N[C@@H]1CCCNC1)c1sc2nccc3c2c1NC(=O)N3c1ccc(Cl)c(Cl)c1 [Example 346, (R)-5-(3,4-Dichlorophenyl)-4-oxo-N-(piperidin-3-yl)-4,5-dihydro-3H-1-thia-3,5,8-triazaacenaphthylene-2-carboxamide] | <5
12 | O=C(N[C@@H]1CCCNC1)c1sc2nccc3c2c1NC(=O)N3c1cccc(C(F)(F)F)c1 [Example 347, (R)-4-Oxo-N-(piperidin-3-yl)-5-(3-(trifluoromethyl)phenyl)-4,5-dihydro-3H-1-thia-3,5,8-triazaacenaphthylene-2-carboxamide] | <5
13 | O=C(N[C@@H]1CCCNC1)c1sc2nccc3c2c1NC(=O)N3c1ccccc1 [Example 348, (R)-4-Oxo-5-phenyl-N-(piperidin-3-yl)-4,5-dihydro-3H-1-thia-3,5,8-triazaacenaphthylene-2-carboxamide] | <5
14 | C=CC(=O)N1CC[C@@H](NC(=O)c2sc3nccc4c3c2NC(=O)N4c2nnc(Oc3ccccc3)cc2C)C1 [Example 351, (R)—N-(1-Acryloylpyrrolidin-3-yl)-5-(4-methyl-6-phenoxypyridazin-3-yl)-4-oxo-4,5-dihydro-3H-1-thia-3,5,8-triazaacenaphthylene-2-carboxamide] | <5
15 | CN(C)c1cccc(N2C(=O)Nc3c(C(=O)N[C@@H]4CCCNC4)sc4nccc2c34)c1 [Example 356, (R)-5-(3-(Dimethylamino)phenyl)-4-oxo-N-(piperidin-3-yl)-4,5-dihydro-3H-1-thia-3,5,8-triazaacenaphthylene-2-carboxamide] | <5
16 | C=CC(=O)N1CCC[C@@H](NC(=O)c2sc3nccc4c3c2NC(=O)N4C(C)C)C1 [Example 357, (R)—N-(1-Acryloylpiperidin-3-yl)-5-isopropyl-4-oxo-4,5-dihydro-3H-1-thia-3,5,8-triazaacenaphthylene-2-carboxamide] | 5.1

Now from value to molecule:

Row | BTK_I_binding pIC50 | SMILES
17 | 5.8 | Cc1cc(Oc2ccccc2)cc(C)c1N1C(=O)Nc2c(C(=O)N[C@@H]3CCCN(C)C3)sc3nccc1c23 [Example 317, (R)-5-(2,6-Dimethyl-4-phenoxyphenyl)-N-(1-methylpiperidin-3-yl)-4-oxo-4,5-dihydro-3H-1-thia-3,5,8-triazaacenaphthylene-2-carboxamide]
18 | 6.7 | CCN1CCC[C@@H](NC(=O)c2sc3nccc4c3c2NC(=O)N4c2ccc(Oc3ccccc3C(C)C)cc2C)C1 [Example 320, (R)—N-(1-Ethylpiperidin-3-yl)-5-(4-(2-isopropylphenoxy)-2-methylphenyl)-4-oxo-4,5-dihydro-3H-1-thia-3,5,8-triazaacenaphthylene-2-carboxamide]
19 | 5.7 | Cc1cc(OC2CC2)ccc1N1C(=O)Nc2c(C(=O)N[C@@H]3CCCN(C)C3)sc3nccc1c23 [Example 322, (R)-5-(4-Cyclopropoxy-2-methylphenyl)-N-(1-methylpiperidin-3-yl)-4-oxo-4,5-dihydro-3H-1-thia-3,5,8-triazaacenaphthylene-2-carboxamide]
20 | 5.7 | Cc1cc(Oc2ccccc2C(N)=O)ccc1N1C(=O)Nc2c(C(=O)N[C@@H]3CCCN(C)C3)sc3nccc1c23 [Example 326, (R)-5-(4-(2-Carbamoylphenoxy)-2-methylphenyl)-N-(1-methylpiperidin-3-yl)-4-oxo-4,5-dihydro-3H-1-thia-3,5,8-triazaacenaphthylene-2-carboxamide]
21 | 5.5 | Cc1cc(OC(C)C)ccc1N1C(=O)Nc2c(C(=O)N[C@@H]3CCCN(C)C3)sc3nccc1c23 [Example 332, (R)-5-(4-Isopropoxy-2-methylphenyl)-N-(1-methylpiperidin-3-yl)-4-oxo-4,5-dihydro-3H-1-thia-3,5,8-triazaacenaphthylene-2-carboxamide]
22 | 5.5 | CCOc1ccc(N2C(=O)Nc3c(C(=O)N[C@@H]4CCCN(C)C4)sc4nccc2c34)c(C)c1 [Example 333, (R)-5-(4-Ethoxy-2-methylphenyl)-N-(1-methylpiperidin-3-yl)-4-oxo-4,5-dihydro-3H-1-thia-3,5,8-triazaacenaphthylene-2-carboxamide]
23 | 5.4 | Cc1cc(Oc2ccccc2)ccc1N1C(=O)Nc2c(C(=O)N(C)[C@@H]3CCN(C)C3)sc3nccc1c23 [Example 338, (R)—N-Methyl-5-(2-methyl-4-phenoxyphenyl)-N-(1-methylpyrrolidin-3-yl)-4-oxo-4,5-dihydro-3H-1-thia-3,5,8-triazaacenaphthylene-2-carboxamide]
24 | 5.3 | COc1ccc(N2C(=O)Nc3c(C(=O)N[C@@H]4CCCN(C)C4)sc4nccc2c34)c(C)c1 [Example 340, (R)-5-(4-Methoxy-2-methylphenyl)-N-(1-methylpiperidin-3-yl)-4-oxo-4,5-dihydro-3H-1-thia-3,5,8-triazaacenaphthylene-2-carboxamide]
25 | <5 | CN1CCC[C@@H](NC(=O)c2sc3nccc4c3c2NC(=O)N4c2ccc(Oc3ccccc3)cc2C(F)(F)F)C1 [Example 349, (R)—N-(1-Methylpiperidin-3-yl)-4-oxo-5-(4-phenoxy-2-(trifluoromethyl)phenyl)-4,5-dihydro-3H-1-thia-3,5,8-triazaacenaphthylene-2-carboxamide]
26 | <5 | Cc1cc(Oc2ccccc2)nnc1N1C(=O)Nc2c(C(=O)N[C@@H]3CCCN(C)C3)sc3nccc1c23 [Example 350, (R)-5-(4-Methyl-6-phenoxypyridazin-3-yl)-N-(1-methylpiperidin-3-yl)-4-oxo-4,5-dihydro-3H-1-thia-3,5,8-triazaacenaphthylene-2-carboxamide]
27 | <5 | Cc1ccccc1N1C(=O)Nc2c(C(=O)N[C@@H]3CCCN(C)C3)sc3nccc1c23 [Example 352, (R)—N-(1-Methylpiperidin-3-yl)-4-oxo-5-(o-tolyl)-4,5-dihydro-3H-1-thia-3,5,8-triazaacenaphthylene-2-carboxamide]
28 | <5 | Cc1cc(Oc2ccncc2)ccc1N1C(=O)Nc2c(C(=O)N[C@@H]3CCCN(C)C3)sc3nccc1c23 [Example 354, (R)-5-(2-Methyl-4-(pyridin-4-yloxy)phenyl)-N-(1-methylpiperidin-3-yl)-4-oxo-4,5-dihydro-3H-1-thia-3,5,8-triazaacenaphthylene-2-carboxamide]
29 | 5.2 | C=CC(=O)N1CCC[C@@H](NC(=O)c2sc3nccc4c3c2NC(=O)N4c2cccnc2C)C1 [Example 358, (R)—N-(1-Acryloylpiperidin-3-yl)-5-(2-methylpyridin-3-yl)-4-oxo-4,5-dihydro-3H-1-thia-3,5,8-triazaacenaphthylene-2-carboxamide]
